Columns and labels:
Type in all cases: in vivo
PGRN-KI mice [1] = assay: Morphological analysis of spines (two-photon excitation microscope, IMARIS)
Description: The knockdown of each gene was performed according to the following procedures: Lentiviral particles (2×10^5 titer units/100 μl) containing scrambled shRNA (sc-108080, manufactured by Santa Cruz Biotechnology), Tau-shRNA (sc-430402-V, manufactured by Santa Cruz Biotechnology), B-Raf shRNA (sc-63294-V, manufactured by Santa Cruz Biotechnology), or Tyro3-siRNA (iV037848, manufactured by ABM) were diluted to 1:4 with ACSF buffer (NaCl 125 mM; KCl 2.5 mM; NaH2PO4 1.25 mM; MgCl2 1 mM; CaCl2) 1 mM; NaHCO326 mM; and glucose 25 mM). Further, a plasmid vector (10 μg) containing scrambled shRNA (TG501653, manufactured by OriGene), PKCα-shRNA (TG501653, manufactured by OriGene), or Gas6-shRNA (sc-35451-SH, manufactured by Santa Cruz Biotechnology) was dissolved in 100 μl of in vivo-jetPEI (201-10G, manufactured by Polyplus-transfection). […]
Images of dendrites from the mice (at 12 weeks of age) knocked down for each gene were acquired using a two-photon excitation microscope. In addition, the number of spines was measured using “IMARIS software” (IMARIS 7.2.2, manufactured by Bitplane GmbH). […]
Images of dendrites from the mice (at 12 weeks of age) in each administered group were acquired using a two-photon excitation microscope. In addition, the number of spines was measured using “IMARIS software” (IMARIS 7.2.2, manufactured by Bitplane GmbH). […]

PGRN-KI mice [2] = assay: Morris water maze test
Description: (§1) The following two types of behavioral experiments (fear conditioning experiment and Morris water maze test) were performed, and an impaired cognitive response was found in the PGRN-KI mice of 12 weeks or older. Such an impaired response is a symptom similarly seen in frontotemporal lobar degeneration. It is to be noted that all behavioral tests are carried out according to the method indicated by Ito H. et al. (Mol Psychiatry. 2015 April; 20 (4): 459-471).
A Morris water maze test was performed with the PGRN-KI mice and control mice (C57BL/6J mice without the knock-in). Specifically, the mice received a 60-second trial four times per day for 5 days, and the time period taken for each mouse to reach the platform was measured. […] This means that the cognitive response of the PGRN-KI mice was impaired as compared with the control mice.
The knockdown of each gene was performed according to the following procedures: Lentiviral particles (2×10^5 titer units/100 μl) containing scrambled shRNA (sc-108080, manufactured by Santa Cruz Biotechnology), Tau-shRNA (sc-430402-V, manufactured by Santa Cruz Biotechnology), B-Raf shRNA (sc-63294-V, manufactured by Santa Cruz Biotechnology), or Tyro3-siRNA (iV037848, manufactured by ABM) were diluted to 1:4 with ACSF buffer (NaCl 125 mM; KCl 2.5 mM; NaH2PO4 1.25 mM; MgCl2 1 mM; CaCl2) 1 mM; NaHCO326 mM; and glucose 25 mM). […]

PGRN-KI mice [3] = assay: Fear conditioning experiment (freezing reaction)
Description: as §1
A fear conditioning experiment was performed with the PGRN-KI mice and control mice (C57BL/6J mice without the knock-in). Specifically, the mice received electrical stimulation (0.4 mA, 2 s) on their paws along with sound stimulation (65 dB white noise, 30 s). Twenty-four hours later, the frequency of the freezing reaction in the mice was measured when the mice were subjected to the sound stimulation without the electrical stimulation in the same chamber. […] This means that the cognitive response of the PGRN-KI mice was impaired as compared with the control mice. […]

[4] = PGRN-KI mice, treated vs untreated/unknocked-down PGRN-KI mice
[5] = control mice (C57BL/6J without the knock-in), with or without agent

In the case of Cn1c2ccccc2c2c3c(c4c5ccccc5n(CCC#N)c4c21)CNC3=O [Go6976], the number of spines (PGRN-KI mice [1]; PGRN-KI mice at 12 weeks of age, treated vs untreated/unknocked-down PGRN-KI mice) is reported as “markedly higher number of spines”, the number of spines (PGRN-KI mice [1]; control mice (C57BL/6J without the knock-in) at 12 weeks of age, with or without agent) is reported as “no change” and the “cognitive response in the Morris water maze test” value (PGRN-KI mice [2]; [4]) is reported as “significantly improved”. The “cognitive response in the Morris water maze test” value (PGRN-KI mice [2]; [5]) was “no change”, the “cognitive response in the fear conditioning experiment” value (PGRN-KI mice [3]; [4]) was “significantly improved” and the “cognitive response in the fear conditioning experiment” value (PGRN-KI mice [3]; [5]) was “no change”.
